# ChEMBL document CHEMBL5500399, “Design, Synthesis, and Biological Evaluation of 1,2,4-Oxadiazole Derivatives Containing an Aryl Carboxylic Acid Moiety as Potent Sarbecovirus Papain-like Protease Inhibitors” (J Med Chem, 2024)
# Active and inactive are the calls of the source. The calls are words filed in the database; no cut-off is given here.
# Legend:
# [1] = Metabolic stability in human liver microsomes assessed as intrinsic clearance; format: ADME, Microsome; settings: read-out: CLH
# [2] = Metabolic stability in human liver microsomes assessed as half life; format: ADME, Microsome
# [3] = Metabolic stability in human hepatocytes assessed as compound remaining at 1 uM measured after 30 mins; format: ADME, cell-based, Hepatocyte; settings: read-out: Stability
# [4] = Metabolic stability in human hepatocytes assessed as intrinsic clearance per million cells at 1 uM measured upto 30 mins; format: ADME, cell-based, Hepatocyte; settings: read-out: CLH
# [5] = Metabolic stability in mouse hepatocytes assessed as intrinsic clearance per million cells at 1 uM measured upto 30 mins; format: ADME, cell-based, Hepatocyte; settings: read-out: CLH
# [6] = Metabolic stability in mouse hepatocytes assessed as compound remaining at 1 uM measured after 30 mins; format: ADME, cell-based, Hepatocyte; settings: read-out: Stability
# [7] = Metabolic stability in human hepatocytes assessed as half life at 1 uM measured upto 30 mins; format: ADME, cell-based, Hepatocyte
# [8] = Cytotoxicity against african green monkey Vero E6 cells incubated for 48 hrs; format: toxicity, cell-based, Vero C1008; settings: chlorocebus sabaeus
# [9] = Metabolic stability in mouse hepatocytes assessed as half life at 1 uM measured upto 30 mins; format: ADME, cell-based, Hepatocyte
# [10] = AUC(0 to infinity) in BALB/c mouse at 50 mg/kg, po measured upto 48 hrs by LC-MS/MS analysis; format: ADME, organism-based; settings: in vivo
# [11] = Half life in BALB/c mouse at 5 mg/kg, iv measured upto 48 hrs by LC-MS/MS analysis; format: ADME, organism-based; settings: in vivo
# [12] = Metabolic stability in human liver microsomes assessed as half life at 1 uM preincubated for 5 mins followed by NADPH addition and measured after 30 mins by LC-MS/MS analysis; format: ADME, Microsome; settings: time 35 min
# [13] = Metabolic stability in human liver microsomes assessed as compound remaining at 1 uM preincubated for 5 mins followed by NADPH addition and measured after 30 mins by LC-MS/MS analysis; format: ADME, Microsome; settings: read-out: Stability
# [14] = molecular target: T1, Replicase polyprotein 1ab (Severe acute respiratory syndrome coronavirus 2, UniProt P0DTD1); assay: Binding affinity to SARS-CoV2 PLpro by biolayer interferometry analysis
# [15] = Clearance in BALB/c mouse at 5 mg/kg, iv measured upto 48 hrs by LC-MS/MS analysis; format: ADME, organism-based; settings: in vivo
# [16] = MRT(0 to infinity) in BALB/c mouse at 50 mg/kg, po measured upto 48 hrs by LC-MS/MS analysis; format: ADME, organism-based; settings: in vivo
# [17] = AUC(0 to t) in BALB/c mouse at 5 mg/kg, iv measured upto 48 hrs by LC-MS/MS analysis; format: ADME, organism-based; settings: in vivo
# [18] = Oral bioavailability in BALB/c mouse at 50 mg/kg measured upto 48 hrs by LC-MS/MS analysis; format: ADME, organism-based; settings: in vivo
# [19] = Metabolic stability in CD-1 mouse liver microsomes assessed as half life at 1 uM preincubated for 5 mins followed by NADPH addition and measured after 30 mins by LC-MS/MS analysis; format: ADME, Microsome; settings: time 35 min
# [20] = molecular target: Replicase polyprotein 1ab (Severe acute respiratory syndrome coronavirus 2) (UniProt P0DTD1); assay: Inhibition of RLRGG binding to SARS-CoV2 PLpro
# [21] = molecular target: Replicase polyprotein 1ab (Severe acute respiratory syndrome coronavirus 2) (UniProt P0DTD1); assay: Binding affinity to SARS-CoV2 PLpro assessed as stabilization by measuring increase melting temperature by thermal shift assay
# [22] = AUC(0 to infinity) in BALB/c mouse at 5 mg/kg, iv measured upto 48 hrs by LC-MS/MS analysis; format: ADME, organism-based; settings: in vivo
# [23] = molecular target: Replicase polyprotein 1ab (Middle East respiratory syndrome-related coronavirus (isolate UnitedKingdom/H123990006/2012) (Betacoronavirus England 1) (Humancoronavirus EMC)) (UniProt K9N7C7); assay: Inhibition of MERS-CoV PLpro using Z-RLRGG-AMC as substrate preincubated for 10 mins followed by substrate addition and measured after 20 sec shaking for 30 mins by time-resolved fluorescence assay; settings: time 40.3 min
# [24] = Cmax in BALB/c mouse at 50 mg/kg, po measured upto 48 hrs by LC-MS/MS analysis; format: ADME, organism-based; settings: in vivo
# [25] = Tmax in BALB/c mouse at 5 mg/kg, iv measured upto 48 hrs by LC-MS/MS analysis; format: ADME, organism-based; settings: in vivo
# [26] = Tmax in BALB/c mouse at 50 mg/kg, po measured upto 48 hrs by LC-MS/MS analysis; format: ADME, organism-based; settings: in vivo
# [27] = MRT(0 to t) in BALB/c mouse at 50 mg/kg, po measured upto 48 hrs by LC-MS/MS analysis; format: ADME, organism-based; settings: in vivo
# [28] = Cmax in BALB/c mouse at 5 mg/kg, iv measured upto 48 hrs by LC-MS/MS analysis; format: ADME, organism-based; settings: in vivo
# [29] = MRT(0 to t) in BALB/c mouse at 5 mg/kg, iv measured upto 48 hrs by LC-MS/MS analysis; format: ADME, organism-based; settings: in vivo
# [30] = tested on: Severe acute respiratory syndrome-related coronavirus; assay: Inhibition of SARS-CoV PLpro using Z-RLRGG-AMC as substrate preincubated for 10 mins followed by substrate addition and measured after 20 sec shaking for 30 mins by time-resolved fluorescence assay
# [31] = Metabolic stability in CD-1 mouse liver microsomes assessed as compound remaining at 1 uM preincubated for 5 mins followed by NADPH addition and measured after 30 mins by LC-MS/MS analysis; format: ADME, Microsome; settings: read-out: Stability
# [32] = molecular target: Replicase polyprotein 1ab (Severe acute respiratory syndrome coronavirus 2) (UniProt P0DTD1); assay: Inhibition of SARS-CoV2 PLpro cleavage activity using 2Ub-K48 as substrate incubated overnight by SYPRO Ruby staining based SDS-PAGE analysis
# [33] = Half life in BALB/c mouse at 50 mg/kg, po measured upto 48 hrs by LC-MS/MS analysis; format: ADME, organism-based; settings: in vivo
# [34] = AUC(0 to t) in BALB/c mouse at 50 mg/kg, po measured upto 48 hrs by LC-MS/MS analysis; format: ADME, organism-based; settings: in vivo
# [35] = molecular target: T1, Replicase polyprotein 1ab; assay: Inhibition of SARS-CoV2 PLpro using Z-RLRGG-AMC as substrate preincubated for 10 mins followed by substrate addition and measured after 20 sec shaking for 30 mins by time-resolved fluorescence assay
# [36] = MRT(0 to infinity) in BALB/c mouse at 5 mg/kg, iv measured upto 48 hrs by LC-MS/MS analysis; format: ADME, organism-based; settings: in vivo
SMILES,CC50 at 48 h [8],AUC(0-inf) [10],half-life [11],half-life at 1 µM [12],"remaining at 0.5 h, 1 µM [13]",Kd [14],clearance [15],MRT inf [16],AUC(0-t) at 48 h [17],bioavailability [18],half-life at 1 µM [19],inhibition [20],AUC(0-inf) [22],inhibition [23],Cmax [24],Tmax [25],Tmax [26],MRT last at 48 h [27],Cmax [28],MRT last at 48 h [29],further results
Cc1ccc(N)cc1C(=O)N[C@H](C)c1cccc2ccccc12,253 µM,,,,,,,,,,,,,,,,,,,,"CLint scaled [1]: 27 mL/min/kg; half-life [2]: 0.44 h; remaining at 0.5 h, 1 µM [3]: 63%; hepatocyte CLint at 1 µM [4]: 15.4 µL/min/1e6 cells; hepatocyte CLint at 1 µM [5]: 91.5 µL/min/1e6 cells; remaining at 0.5 h, 1 µM [6]: 6.4%; half-life at 1 µM [7]: 0.75 h; half-life at 1 µM [9]: 7.6 min"
CC(c1nc(-c2ccc(-c3ccc(C(=O)O)s3)cc2)no1)c1cccc2ccccc12 (centres undefined),170 µM,17500 ng·h/mL,5.8 h,> 1.55 h,82.1%,13.6 µM,2.35 mL/min/kg,8.29 h,36300 ng·h/mL,4.8%,> 1.55 h,Active,36300 ng·h/mL,Active,3670 ng/mL,0.17 h,0.88 h,8.05 h,14200 ng/mL,5.04 h,"Activity [21]: Active; inhibition [30]: Active; remaining at 0.5 h, 1 µM [31]: 101%; inhibition [32]: Active; half-life [33]: 6.5 h; AUC(0-t) at 48 h [34]: 17400 ng·h/mL; IC50 [35]: 1.8 µM; MRT inf [36]: 5.12 h"
Cc1ccc(-c2noc(C(C)c3ccc(-c4ccccc4)c(F)c3)n2)cc1NCc1ccc(C(=O)O)s1 (racemic),124 µM,24400 ng·h/mL,4.2 h,> 1.55 h,101%,13.6 µM,13.5 mL/min/kg,2.72 h,6210 ng·h/mL,39.1%,> 1.55 h,Active,6260 ng·h/mL,Active,10200 ng/mL,0.05 h,1.25 h,2.19 h,10600 ng/mL,2.74 h,"inhibition [30]: Active; remaining at 0.5 h, 1 µM [31]: 99.1%; inhibition [32]: Active; half-life [33]: 2.53 h; AUC(0-t) at 48 h [34]: 24300 ng·h/mL; IC50 [35]: 1 µM; MRT inf [36]: 2.96 h"
